Measured values reported in patent publication US20260250325A1, “Antiviral Polypeptide Membrane Fusion Inhibitor, and Preparation Method and Application Thereof” (priority 2025, published 2026).
Like-named read-outs stand apart in the source and are kept apart here. Where a SMILES comes first, the peptide text is derived from it. The star is where a group is joined. X1 = CC(C)CCCC(C)C1CCC2C3CC=C4CC(OC(=O)CCC(=O)*)CCC4(C)C3CCC12C

Experiments:
[1] = Cytotoxicity test in HEp-2 cells (CCK8 cell viability); assay type: cell-based; conditions: human
Experimental: (§1) Human Epithelial Pharyngeal Carcinoma Cells (HEp-2) were from the American Type Culture Collection (ATCC), with a catalog number CCL-23. The cells were cultured in a DMEM culture solution in which 10% fetal bovine serum, 1% sodium pyruvate, 1% nonessential amino acids, 2 mM glutamine, 100 U/mL penicillin, and 100 μg/mL streptomycin were added. The RSV A long virus strain was from the ATCC, with a catalog number VR-26.
A cytotoxicity test and an antiviral test were performed in parallel. The HEp-2 cells were inoculated in the microplate at a density of 30,000 cells per well, and cultured overnight in the 37° C. incubator with 5% CO2. On the next day, the diluted test sample was added. The cell control (cells, without compound treatment) and a culture solution control (culture solution only, without cell or compound treatment) were set. A final concentration of DMSO in the culture solution was 0.5%. The cells were cultured for 1 day in the 37° C. incubator with 5% CO2. Cell viability was detected by using a cell viability detection kit CCK8.
(§2) The raw data for plaque counts and cell viability tests were used for analyzing the antiviral activity and cytotoxicity of the test samples, respectively. A calculation formula was shown as follows.
cell survival rate=(sample value-culture medium control average value)/(cell control average value-culture medium control average value)×100
(§3) Non-linear fitting analysis was performed on the inhibition rate of the sample by using GraphPad Prism (version 10), so as to calculate the IC50 and CC50 values for the sample.
CC50: in the in-vitro antiviral activity experiment, CC50 was used to measure the toxicity of the compound to be tested to the Hep-2 cells. To be precise, when the compound to be tested was at a specific concentration, 50% of the Hep-2 cells was caused to die, and this concentration was defined as the CC50. A fitting formula was log (inhibitor) vs. response-Variable slope (four parameters).

RSV A long virus strain = assay type: cell-based
Experimental: In this embodiment, an RSV-A long virus strain was used as an infection virus in the present disclosure. The anti-RSV activity of the synthesized polypeptide was determined through CPE detection.
The inhibitory activity of the compounds of Table 1-1-Table 1-5, positive polypeptide in Table 1-11, and positive control T-118 against the RSV-A long virus strain was detected.
as §1
This study used a plaque reduction experiment to detect the in-vitro activity of a test sample against the RSV A long virus strain. The test sample and a control compound were tested at 8 concentrations in duplicated wells. The HEp-2 cells were digested with trypsin and then diluted to a concentration of 300,000 cells per milliliter by using an experimental culture solution. The diluted cells were added to a 96-well cell test board, with 100 μL per well, corresponding to 30000 cells per well. The cells were cultured overnight in a 37° C. incubator with 5% CO2. On the second day, the test sample was diluted in an experimental culture medium at a fold ratio. The sample diluted at a fold ratio and an equal volume of virus (100 PFU per well) were well mixed and incubated at 37° C. in 5% CO2 for 1 h. Then, the culture solution in the 96-well cell test board was discarded, the sample virus mixed solution (200 μL) was added to the 96-well cell culture plate, and incubated at 37° C. in 5% CO2 for 2 hours. After 2 h, the sample virus mixed solution was discarded, and 200 μL of maintenance culture medium containing 0.8% CMC and the corresponding concentration of the test sample was added. A cell control (cells, without compound treatment or viral infection) and a viral control (cell infection virus, without compound treatment) were set. The cells were cultured for 1 day in the 37° C. incubator with 5% CO2. One day after viral infection, the culture medium was discarded, the cells were fixed with 4% paraformaldehyde, and then permeabilization was performed with 0.5% Triton X-100. After the plate was washed with DPBS, an RSV-specific antibody (RSV antibody, diluted 1:3000) was added and incubated at 37° C. for 1 h. Then, a secondary antibody (donkey anti-goat IgG, diluted 1:500) and incubated at 37° C. for 1 h. The secondary antibody was discarded, a TrueBlue solution was added, dyeing was performed for 10 min; and the plate was washed with running water and then air-dried, and the number of spots in each well was counted by using a microplate imaging counter. Raw data was used for calculating the antiviral activity of the samples.
as §2
% inhibition rate=100−(sample value-cell control average value)/(virus control average value-cell control average value)×100%
as §3
IC50: in an in-vitro antiviral activity experiment, IC50 represented an inhibition ability indicator of a compound to be tested against the Hep-2 cells infected by the RSV A long virus strain.

[2] = HEp-2 cells, CCK8, 1 day, read-out: CC50
[3] = RSV A long virus strain, HEp-2 cells, plaque reduction, 1 day, read-out: IC50

`CC[C@H](C)[C@H](NC(=O)[C@H](CO)NC(=O)[C@H](C)NC(=O)[C@H](CC(=O)O)NC(=O)[C@H](Cc1ccccc1)NC(=O)[C@H](CCC(=O)O)NC(=O)[C@H](CC(=O)O)NC(=O)[C@H](Cc1c[nH]c2ccccc12)NC(C)=O)C(=O)N[C@@H](CO)C(=O)N[C@@H](CCC(N)=O)C(=O)N[C@@H](CC(N)=O)C(=O)N[C@@H](CCC(=O)O)C(=O)N[C@@H](CCCCN)C(=O)N[C@H](C(=O)N[C@@H](CC(N)=O)C(=O)N[C@@H](CCC(N)=O)C(=O)N[C@@H](CO)C(=O)N[C@@H](CC(C)C)C(=O)N[C@@H](CCC(=O)O)C(=O)N[C@@H](CCC(=O)O)C(=O)N[C@H](C(=O)N[C@@H](CCCNC(=N)N)C(=O)N[C@@H](CCCCN)C(=O)N[C@@H](CO)C(=O)N[C@@H](CC(=O)O)C(=O)N[C@@H](CCC(=O)O)C(=O)N[C@@H](CC(C)C)C(=O)N[C@@H](CC(C)C)C(=O)N[C@@H](Cc1c[nH]cn1)C(=O)N[C@@H](CC(N)=O)C(=O)N[C@@H](CC(N)=O)C(=O)N[C@@H](C)C(=O)N[C@@H](CC(C)C)C(=O)N[C@@H](CCC(=O)O)C(=O)N[C@@H](C)C(=O)N[C@@H](C)C(=O)N[C@@H](C)C(=O)N[C@@H](CCCCN)C(=O)N[C@@H](CCCCNC(=O)CCC(=O)OC1CCC2(C)C(=CCC3C2CCC2(C)C(C(C)CCCC(C)C)CCC32)C1)C(N)=O)[C@@H](C)CC)[C@@H](C)CC` (stereo partly shown) [Compound 39] (Ac-WDEFDASISQNEKINQSLEEIRKSDELLHNNALEAAAKK(X1)-NH2) showed a CC50 at 1 day [1, 2] of over 100 µM and an IC50 (RSV A long virus strain; [3]) of 0.113 µM.

In the case of `CC[C@H](C)[C@H](NC(=O)[C@H](CO)NC(=O)[C@H](C)NC(=O)[C@H](CC(=O)O)NC(=O)[C@H](Cc1ccccc1)NC(C)=O)C(=O)N[C@@H](CCC(=O)O)C(=O)N[C@@H](CCC(=O)O)C(=O)N[C@H](C(=O)N[C@@H](CC(N)=O)C(=O)N[C@@H](CCCNC(=N)N)C(=O)N[C@@H](CCCNC(=N)N)C(=O)N[C@H](C(=O)N[C@@H](CCC(=O)O)C(=O)N[C@@H](CCC(=O)O)C(=O)N[C@@H](CO)C(=O)N[C@@H](CC(C)C)C(=O)N[C@@H](CCCNC(=N)N)C(=O)N[C@@H](CCCNC(=N)N)C(=O)N[C@H](C(=O)N[C@@H](CCC(=O)O)C(=O)N[C@@H](CCC(=O)O)C(=O)N[C@@H](CO)C(=O)N[C@@H](CC(=O)O)C(=O)N[C@@H](CCCNC(=N)N)C(=O)N[C@@H](CCCNC(=N)N)C(=O)N[C@@H](CC(C)C)C(=O)N[C@@H](CCC(=O)O)C(=O)N[C@H](C(=O)N[C@@H](CC(N)=O)C(=O)N[C@@H](CCCCN)C(=O)N[C@@H](CCCCN)C(=O)N[C@@H](C)C(N)=O)C(C)C)[C@@H](C)CC)[C@@H](C)CC)C(C)C` [Compound 1] (Ac-FDASIEEVNRRIEESLRRIEESDRRLEVNKKA-NH2), the CC50 at 1 day [1] is reported as over 8 µM and the IC50 (RSV A long virus strain) is reported as 1.36 µM.

For `CC[C@H](C)[C@H](NC(=O)[C@H](CO)NC(=O)[C@H](CCC(=O)O)NC(=O)[C@H](CC(N)=O)NC(=O)[C@@H](NC(=O)[C@H](CCCCN)NC(=O)[C@H](CO)NC(=O)[C@H](CO)NC(=O)[C@H](C)NC(=O)[C@H](CC(=O)O)NC(=O)[C@H](CC(N)=O)NC(=O)[C@@H](NC(=O)[C@H](CCC(=O)O)NC(=O)[C@H](CC(C)C)NC(=O)[C@H](CCCNC(=N)N)NC(=O)[C@H](Cc1ccccc1)NC(=O)[C@H](C)NC(=O)[C@H](CC(=O)O)NC(=O)[C@H](C)NC(C)=O)C(C)C)[C@@H](C)CC)C(=O)N[C@@H](CCC(=O)O)C(=O)N[C@@H](CCC(=O)O)C(=O)N[C@@H](CO)C(=O)N[C@@H](CC(C)C)C(=O)N[C@@H](CC(C)C)C(=O)N[C@@H](CO)C(=O)N[C@@H](CC(C)C)C(=O)N[C@@H](CCC(=O)O)C(=O)N[C@@H](CCCCN)C(=O)N[C@@H](CC(C)C)C(=O)N[C@@H](Cc1c[nH]cn1)C(=O)N[C@@H](CC(N)=O)C(=O)N[C@H](C(=O)N[C@@H](CC(N)=O)C(=O)N[C@@H](C)C(=O)N[C@H](C(=O)N[C@@H](C)C(N)=O)[C@@H](C)O)C(C)C` [Compound 6] (Ac-ADAFRLEVNDASSKINESIEESLLSLEKLHNVNATA-NH2), the CC50 at 1 day [1] was over 8 µM and the IC50 (RSV A long virus strain) was over 8 µM.

“Ac-SLEQVNKKIEQSLESLKKSDKINQSLEEVNKSDELLEAAAKK-NH2 [Compound 49]” showed a CC50 at 1 day [1] of over 8 µM and an IC50 (RSV A long virus strain) of over 8 µM.

`CC[C@H](C)[C@H](NC(C)=O)C(=O)N[C@@H](CCC(=O)O)C(=O)N[C@@H](CCC(=O)O)C(=O)N[C@H](C(=O)N[C@@H](CC(N)=O)C(=O)N[C@@H](CCCCN)C(=O)N[C@@H](CCCCN)C(=O)N[C@H](C(=O)N[C@@H](CCC(=O)O)C(=O)N[C@@H](CCC(=O)O)C(=O)N[C@@H](CO)C(=O)N[C@@H](CC(C)C)C(=O)N[C@@H](CCCCN)C(=O)N[C@@H](CCCCN)C(=O)N[C@H](C(=O)N[C@@H](CCC(=O)O)C(=O)N[C@@H](CCC(=O)O)C(=O)N[C@@H](CO)C(=O)N[C@@H](CC(=O)O)C(=O)N[C@@H](CCCCN)C(=O)N[C@@H](CCCCN)C(=O)N[C@@H](CC(C)C)C(=O)N[C@@H](CCC(=O)O)C(=O)N[C@@H](CCC(=O)O)C(=O)N[C@H](C(=O)N[C@@H](CC(N)=O)C(=O)N[C@@H](CCCCN)C(=O)N[C@@H](CCCCN)C(=O)N[C@@H](CCCCN)C(=O)N[C@@H](CCC(=O)O)C(=O)N[C@@H](C)C(=O)N[C@@H](C)C(=O)N[C@@H](C)C(=O)N[C@@H](CCCCN)C(=O)N[C@@H](CCCCNC(=O)CCC(=O)OC1CCC2(C)C(=CCC3C2CCC2(C)C(C(C)CCCC(C)C)CCC32)C1)C(N)=O)C(C)C)[C@@H](C)CC)[C@@H](C)CC)C(C)C` (stereo partly shown) [Positive polypeptide 3, reference compound] (Ac-IEEVNKKIEESLKKIEESDKKLEEVNKKKEAAAKK(X1)-NH2) showed a CC50 at 1 day [1, 2] of over 10 µM and an IC50 (RSV A long virus strain; [3]) of over 0.3 µM.

“Ac-WDEFDKKIEEVNKKIEESLKKIEESDKKLEEVNKKLGSGSGK(X1)-NH2 [Compound 11]” showed a CC50 at 1 day [1, 2] of over 8 µM and an IC50 (RSV A long virus strain; [3]) of 0.0991 µM.

`CC[C@H](C)[C@H](NC(=O)[C@H](Cc1ccccc1)NC(=O)[C@H](CCCCN)NC(=O)[C@H](CC(C)C)NC(=O)[C@H](CO)NC(=O)[C@H](CCC(N)=O)NC(=O)[C@H](CCC(=O)O)NC(=O)[C@@H](NC(=O)[C@H](CCCCN)NC(=O)[C@H](CCCCN)NC(=O)[C@H](CC(N)=O)NC(=O)[C@@H](NC(=O)[C@H](CCC(N)=O)NC(=O)[C@H](CCC(=O)O)NC(=O)[C@H](CC(C)C)NC(=O)[C@H](CO)NC(C)=O)C(C)C)[C@@H](C)CC)C(=O)N[C@@H](CCC(=O)O)C(=O)N[C@@H](CCCCN)C(=O)N[C@@H](CO)C(=O)N[C@@H](CC(=O)O)C(=O)N[C@@H](CCCCN)C(=O)N[C@@H](CC(C)C)C(=O)N[C@@H](CC(C)C)C(=O)N[C@@H](CCC(=O)O)C(=O)N[C@@H](CC(N)=O)C(=O)NCC(=O)N[C@@H](CO)C(=O)NCC(=O)N[C@@H](CO)C(=O)NCC(=O)N[C@@H](CCCCNC(=O)CCC(=O)OC1CCC2(C)C(=CCC3C2CCC2(C)C(C(C)CCCC(C)C)CCC32)C1)C(N)=O` (stereo partly shown) [Positive polypeptide 1, reference compound] (Ac-SLEQVNKKIEQSLKFIEKSDKLLENGSGSGK(X1)-NH2) showed a CC50 at 1 day [1, 2] of 3.69 µM and an IC50 (RSV A long virus strain; [3]) of 0.15 µM.

With “Ac-SLEQVNKINKKIDKIEESLKKIEESDKKSLEVNKKLEAAAKK-NH2 [Compound 47]” the CC50 at 1 day [1] was over 8 µM and the IC50 (RSV A long virus strain) was over 8 µM.
